10 molecules from publication PMC11191687 can be followed below.

Data set [1] in a line: as series B (acyl azide from hydrazide, MeCN cosolvent), isolated after prep HPLC. To be noted: the molecule shown is the open-chain precursor, aq phosphate buffer (6 M GdmCl) diluted with 2 vol 50% MeCN/water, 4.0 mM, 2 steps.
Data set [2] can be described thus: head-to-tail lactamisation of unprotected peptide acyl azide (from C-terminal hydrazide, 20 equiv NaNO2, pH 3, -15 C, then NaHCO3 to pH ~7), biphasic EtOAc/buffer. To be noted: aq phosphate buffer (6 M GdmCl, 50 mM NaH2PO4, 1.5 mM EDTA) / EtOAc biphasic, 3.0 mM, 0.25 h, 2 steps.
A short description of data set [3]: as series A (acyl azide from hydrazide, biphasic EtOAc/buffer), isolated after prep HPLC. The note with it: aq phosphate buffer (6 M GdmCl) / EtOAc biphasic, 3.0 mM, 0.25 h, 2 steps.
Setting [4] is: from CC[C@H](NC(=O)[C@H](CC(C)C)N(C)C(=O)[C@H](C(C)C)N(C)C(=O)[C@H](CC(C)C)N(C)C(=O)[C@H](CC(C)C)N(C)C(=O)[C@@H](C)N)C(=O)N(C)CC(=O)N(C)[C@@H](CC(C)C)C(=O)N[C@H](C(=O)N(C)[C@@H](CC(C)C)C(=O)N[C@@H](C)C(=O)N=[N+]=[N-])C(C)C, 33-membered ring.
Where [5] appears, read: from C=CC(C)(C)n1cc(C[C@H](N)C(=O)N(C)[C@@H](CC(C)C)C(=O)N[C@@H](Cc2ccc(O)c([N+](=O)[O-])c2)C(=O)N[C@@H](C)C(=O)N(C)[C@@H](CC(C)C)C(=O)N[C@@H](CC(C)C)C(=O)N[C@@H](C/C=C/C)C(=O)N=[N+]=[N-])c2ccccc21, 21-membered ring.
[6] abbreviates: from CC(C)C[C@H](NC(=O)[C@H](CC(C)C)N(C)C(=O)[C@H](C)NC(=O)[C@H](Cc1ccc(O)c([N+](=O)[O-])c1)NC(=O)[C@H](CC(C)C)N(C)C(=O)[C@H](C)N)C(=O)N[C@@H](Cc1ccccc1)C(=O)N=[N+]=[N-], 21-membered ring.

`CC(C)C[C@H](NC(=O)[C@H](Cc1ccc(O)cc1)NC(=O)[C@@H]1CCCN1C(=O)CN)C(=O)N[C@@H](C)C(=O)N=[N+]=[N-]` [H-Gly-Pro-Tyr-Leu-Ala-N3] showed a ring closure, yield over several steps in data set [1] (15-membered ring) of 51%. The molecule `CC(C)C[C@H](NC(=O)[C@H](CCCN)NC(=O)[C@@H](NC(=O)[C@@H]1CCCN1C(=O)[C@@H](Cc1ccccc1)NC(=O)[C@H](CC(C)C)NC(=O)[C@H](CCCN)NC(=O)[C@@H](NC(=O)[C@@H]1CCCN1C(=O)[C@H](N)Cc1ccccc1)C(C)C)C(C)C)C(=O)N=[N+]=[N-]` [H-D-Phe-Pro-Val-Orn-Leu-D-Phe-Pro-Val-Orn-Leu-N3] registered a ring closure, yield over several steps in data set [1] (30-membered ring) of 63%. Take `CC(=O)N[C@@H](Cc1ccccc1)C(=O)N[C@@H](CCCN)C(=O)N1CCC[C@H]1C(=O)N[C@H](Cc1ccc(O)cc1)C(=O)N[C@@H](Cc1c[nH]c2ccccc12)C(=O)N[C@@H](CCCNC(=N)N)C(=O)N=[N+]=[N-]` [Ac-Phe-Orn(cyclises via side chain)-Pro-D-Tyr-Trp-Arg-N3]: in data set [1] (18-membered ring), the ring closure, yield over several steps was found to be 62%. Consider `CC[C@H](C)[C@H](NC(=O)CNC(=O)[C@H](CO)NC(=O)[C@@H]1CCCN1C(=O)[C@@H](NC(=O)[C@@H]1CCCN1)C(C)C)C(=O)N[C@@H](Cc1ccccc1)C(=O)NCC(=O)N=[N+]=[N-]` [H-Pro-Val-Pro-Ser-Gly-Ile-Phe-Gly-N3], for which the ring closure, yield over several steps in data set [1] (24-membered ring) was 42%. In the case of `CC[C@@H]1NC(=O)[C@H](CC(C)C)N(C)C(=O)[C@H](C(C)C)N(C)C(=O)[C@H](CC(C)C)N(C)C(=O)[C@H](CC(C)C)N(C)C(=O)[C@@H](C)NC(=O)[C@H](C)NC(=O)[C@H](CC(C)C)N(C)C(=O)[C@H](C(C)C)NC(=O)[C@H](CC(C)C)N(C)C(=O)CN(C)C1=O`, the ring closure, conversion by HPLC in data set [2] (setting [4]) was found to be 61%. This molecule also showed a ring closure, yield over several steps in data set [3] (setting [4]) of 22%.

`C=CC(C)(C)n1cc(C[C@@H]2NC(=O)[C@H](C/C=C/C)NC(=O)[C@H](CC(C)C)NC(=O)[C@H](CC(C)C)N(C)C(=O)[C@H](C)NC(=O)[C@H](Cc3ccc(O)c([N+](=O)[O-])c3)NC(=O)[C@H](CC(C)C)N(C)C2=O)c2ccccc21`: in data set [2] (setting [5]), the ring closure, conversion by HPLC is 84%. The ring closure, yield over several steps in data set [3] (setting [5]) was found to be 39%.

As to `CCCCC(C)CCC(=O)N[C@@H](CCN)C(=O)N[C@H](C(=O)N[C@@H](CCN)C(=O)N[C@@H](CCN)C(=O)N[C@@H](CCN)C(=O)N[C@H](CC(C)C)C(=O)N[C@@H](CC(C)C)C(=O)N[C@@H](CCN)C(=O)N[C@@H](CCN)C(=O)N[C@H](C(=O)N=[N+]=[N-])[C@@H](C)O)[C@@H](C)O` (stereo partly shown), the ring closure, yield over several steps in data set [1] (23-membered ring) turned out to be 3%. In turn, `CC(C)C[C@H](NC(=O)[C@H](CCCN)NC(=O)[C@@H](NC(=O)[C@H](Cc1ccc(O)cc1)NC(=O)[C@H](CCC(N)=O)NC(=O)[C@H](CC(N)=O)NC(=O)[C@@H](Cc1ccccc1)NC(=O)[C@H](Cc1ccccc1)NC(=O)[C@@H]1CCCN1C(=O)[C@H](N)Cc1ccccc1)C(C)C)C(=O)N=[N+]=[N-]` [H-D-Phe-Pro-Phe-D-Phe-Asn-Gln-Tyr-Val-Orn-Leu-N3] gave a ring closure, yield over several steps in data set [1] (30-membered ring, 0.25 h) of 68%. For `CC(C)C[C@@H]1NC(=O)[C@H](CC(C)C)N(C)C(=O)[C@H](C)NC(=O)[C@H](Cc2ccc(O)c([N+](=O)[O-])c2)NC(=O)[C@H](CC(C)C)N(C)C(=O)[C@H](C)NC(=O)[C@H](Cc2ccccc2)NC1=O` [H-Ala-N-Me-Leu-Tyr(3-NO2)-Ala-N-Me-Leu-Leu-Phe-N3], in data set [2] (setting [6]), the ring closure, conversion by HPLC is 88%. Further, the ring closure, yield over several steps in data set [3] (setting [6]) was 40%.

Molecule `CSCC[C@H](NC(=O)[C@@H](NC(=O)[C@H](CC(C)C)NC(=O)CNC(=O)[C@@H]1CCCN1C(=O)[C@@H](NC(=O)CNC(=O)[C@@H](N)Cc1ccccc1)C(C)C)C(C)C)C(=O)N=[N+]=[N-]` [H-Phe-Gly-Val-Pro-Gly-Leu-Val-Met-N3] returned a ring closure, yield over several steps in data set [1] (24-membered ring) of 12%.
